# Source: US6451814B1, “Heterocyclic β-3 adrenergic receptor agonists” (Wyeth, priority 2000, dated 2002)
# “And” between values parts separate entries of the source, which are not always exact repeats. Identical values can stand only once.
# Target: T1, human β3-adrenergic receptor (Homo sapiens, UniProt P13945)
# T1 construct: Full length β3 AR clones (402 amino acids) containing the last 6 amino acids of hβ3—AR are prepared; expressed in transfected cells; host or cells: CHO cells
# Test: cAMP response (SPA kit) in CHO cells transfected with human β3 adrenergic receptor
# Type: cell-based
# Conditions: for EC50: CHO cells expressing human β3-AR, 10^-9 M to 10^-5 M, 30 min at 37° C., cAMP by SPA, read-out: EC50(β3); for IA(β3): maximal response of compound compared to maximal response of isoproterenol at 10^-5 M, CHO cells, human β3-AR
# T1 sequence (P13945 whole entry): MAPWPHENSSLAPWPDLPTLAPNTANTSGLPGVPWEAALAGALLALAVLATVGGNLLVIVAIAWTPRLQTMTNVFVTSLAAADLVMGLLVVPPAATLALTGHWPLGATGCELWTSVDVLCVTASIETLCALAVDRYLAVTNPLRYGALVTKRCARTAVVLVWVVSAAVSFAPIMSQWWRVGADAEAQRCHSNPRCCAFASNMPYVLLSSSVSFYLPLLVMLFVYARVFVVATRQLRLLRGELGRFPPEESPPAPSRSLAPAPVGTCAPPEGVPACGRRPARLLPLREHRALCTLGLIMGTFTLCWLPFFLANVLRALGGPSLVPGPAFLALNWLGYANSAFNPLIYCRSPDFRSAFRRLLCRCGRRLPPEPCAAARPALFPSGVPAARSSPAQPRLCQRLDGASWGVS
Molecule,EC50,IA(β3)
"CCCCCCCCNC(=O)N1CCC(Oc2ccc(CCNC[C@H](O)COc3ccc(O)cc3)cc2)CC1 [Example 54, 4-[4-(2-{[(2S)-2-Hydroxy-3-(4-hydroxyphenoxy)propyl]amino}ethyl)phenoxy]-N-octyl-1-piperidinecarboxamide]",1010 nM and 398 nM and 400 nM,0.7 and 0.78 and 0.51
"CCCCCCCCNC(=O)N1CCC(Nc2ccc(CCNC[C@H](O)COc3ccc(O)c(NS(C)(=O)=O)c3)cc2)CC1 [Example 66, 4-(4-{2-[(2S)-2-Hydroxy-3-(4-hydroxy-3-methanesulfonylamino-phenoxy)-propylamino]-ethyl}-phenylamino)-piperidine-1-carboxylic Acidoctylamide]",200 nM,0.99
"O=C(CCNC(=O)N1CCC(Nc2ccc(CCNC[C@H](O)COc3ccc(O)cc3)cc2)CC1)Nc1ccc(F)cc1 [Example 81, 4-(4-{2-[(2S)-2-Hydroxy-3-(4-hydroxy-phenoxy)-propylamino]-ethyl}-phenylamino)-piperidine-1-carboxylic Acid [2-(4-fluoro-phenylcarbamoyl)-ethyl]-amide]",21 nM,1
"CCCCCCCCNC(=O)N1CCC(N(C(C)=O)c2ccc(CCNC[C@H](O)COc3ccc(O)cc3)cc2)CC1 [Example 8, 4-[Acetyl-(4-{2-[(2S)-2-hydroxy-3-(4-hydroxy-phenoxy)-propylamino]-ethyl}-phenyl)-amino]-piperidine-1-carboxylic Acid Octylamide]",64 nM,0.82
"CCCCCCNC(=O)Nc1ccc(S(=O)(=O)N2CCC(Nc3ccc(CCNC[C@H](O)COc4ccc(O)cc4)cc3)CC2)cc1 [Example 108, 1-Hexyl-3-{4-[4-(4-{2-[(2S)-2-hydroxy-3-(4-hydroxy-phenoxy)-propylamino]-ethyl}-phenylamino)-piperidine-1-sulfonyl]-phenyl}-urea]",7 nM,1.08
"CCCCCCCCNC(=O)N1CCC(Nc2ccc(OCCNC[C@H](O)COc3ccc(O)cc3)cc2)CC1 [Example 73, 4-(4-{2-[(2S)-2-Hydroxy-3-(4-hydroxy-phenoxy)-propylamino]-ethoxy}-phenylamino)-piperidine-1-carboxylic Acid Octylamide]",70 nM,0.8
"O=C(NCc1ccc(O)cc1F)N1CCC(Nc2ccc(CCNCC(O)COc3ccc(O)cc3)cc2)CC1 (stereo not drawn) [Example 83, 4-(4-{2-[2-Hydroxy-3-(4-hydroxy-phenoxy)-propylamino]-ethyl}-phenylamino)-piperidine-1-carboxylic Acid 2-fluoro-4-hydroxy-benzylamide]",–,0.88
"O=C(CCNC(=O)N1CCC(Nc2ccc(CCNC[C@H](O)COc3ccc(O)cc3)cc2)CC1)N1CCOCC1 [Example 90, 4-(4-{2-[(2S)-2-Hydroxy-3-(4-hydroxy-phenoxy)-propylamino]-ethyl}-phenylamino)-piperidine-1-carboxylic Acid (3-morpholin-4-yl-3-oxo-propyl)-amide]",77 nM,0.73
"COc1cccc(CNC(=O)N2CCC(Nc3ccc(CCNC[C@H](O)COc4ccc(O)cc4)cc3)CC2)c1 [Example 79, 4-(4-{2-[(2S)-2-Hydroxy-3-(4-hydroxy-phenoxy)-propylamino]-ethyl}-phenylamino)-piperidine-1-carboxylic acid 3-methoxy-benzylamide]",41 nM,0.8
"O=C(OCc1cc(F)ccc1F)N1CCC(Nc2ccc(CCNC[C@H](O)COc3ccc(O)cc3)cc2)CC1 [Example 122, 4-(4-{2-[(2S)-2-Hydroxy-3-(4-hydroxy-phenoxy)-propylamino]-ethyl}-phenylamino)-piperidine-1-carboxylic Acid 2,5-difluoro-benzyl Ester]",100 nM,0.81
"O=C(NCC1(c2ccccc2)CCCC1)N1CCC(S(=O)(=O)c2ccc(CCNC[C@H](O)COc3ccc(O)cc3)cc2)CC1 [Example 46, 4-(4-{2-[(2S)-2-Hydroxy-3-(4-hydroxy-phenoxy)-propylamino]-ethyl}-benzenesulfonyl)-piperidine-1-carboxylic Acid (1-phenyl-cyclopentylmethyl)-amide]",162 nM,0.82
1H-Indole-2-carboxylic Acid (4-{2-[(2S)-2-hydroxy-3-(4-hydroxy-phenoxy)-propylamino]-ethyl}-phenyl)-amide [Example 91],51 nM,1
"CCCCCCCCNC(=O)N1CCC(C(=O)N2CCC(Nc3ccc(CCNC[C@H](O)COc4ccc(O)cc4)cc3)CC2)CC1 [Example 92, 4-[4-(4-{2-[(2S)-2-Hydroxy-3-(4-hydroxy-phenoxy)-propylamino]-ethyl}-phenylamino)-piperidine-1-carbonyl]-piperidine-1-carboxylic Acidoctylamide]",10 nM,0.92
"CCOC(=O)C1CCCN(C(=O)N2CCC(Nc3ccc(CCNC[C@H](O)c4ccc(O)c(NS(C)(=O)=O)c4)cc3)CC2)C1 (stereo partly drawn) [Example 78, 1-[[4-[[4-[2-[[(2R)-2-Hydroxy-2-[4-hydroxy-3-[(methylsulfonyl)amino]phenyl]ethyl]amino]ethyl]phenyl]amino]-1-piperidinyl]carbonyl]-3-piperidine Carboxylic Acid, Ethyl Ester]",–,1
"O=C(NCc1ccc(F)cc1)N1CCC(Nc2ccc(CCNC[C@H](O)COc3ccc(O)cc3)cc2)CC1 [Example 1, 4-(4-{2-[(2S)-2-Hydroxy-3-(4-hydroxy-phenoxy)-propylamino]-ethyl}-phenylamino)-piperidine-1-carboxylic Acid 4-fluoro-benzylamide]",32 nM and 36 nM and 50 nM,0.95 and 0.71 and 0.91
"COc1ccc2[nH]c(C(=O)N3CCC(Nc4ccc(CCNCC(O)COc5ccc(O)cc5)cc4)CC3)cc2c1 (stereo not drawn) [Example 94, [4-(4-{2-[2-Hydroxy-3-(4-hydroxy-phenoxy)-propylamino]-ethyl}-phenylamino)-piperidin-1-yl]-(5-methoxy-1H-indol-2-yl)-methanone]",10 nM and 54 nM,0.59 and 0.78
"COc1c(C(=O)N2CCC(Nc3ccc(CCNC[C@H](O)COc4ccc(O)cc4)cc3)CC2)sc2ccccc12 [Example 97, [4-(4-{2-[(2S)-2-Hydroxy-3-(4-hydroxy-phenoxy)-propylamino]-ethyl}-phenylamino)-piperidin-1-yl]-(3-methoxy-benzo[b]thiophen-2-yl)-methanone]",34 nM,0.79
"CCCCCCCCNC(=O)N1CCC(Nc2ccc(CCNC[C@H](O)c3cccc(Cl)c3)cc2)CC1 [Example 36, 4-(4-{2-[(2R)-2-(3-Chloro-phenyl)-2-hydroxy-ethylamino]-ethyl}-phenylamino)-piperidine-1-carboxylic Acid Octylamide]",–,0.77
"O=C(NCc1ccc(O)cc1F)N1CCC(Nc2ccc(CCNC[C@H](O)COc3cccc(O)c3)cc2)CC1 [Example 87, 4-(4-{2-[(2S)-2-Hydroxy-3-(3-hydroxy-phenoxy)-propylamino]-ethyl}-phenylamino)-piperidine-1-carboxylic Acid 2-fluoro-4-hydroxy-benzylamide]",4 nM,0.84
"CS(=O)(=O)Nc1cc([C@@H](O)CNCCc2ccc(NC3CCN(c4nc(-c5ccccc5)cs4)CC3)cc2)ccc1O [Example 118, (R)-N-{2-Hydroxy-5-[1-hydroxy-2-(2-{4-[1-(4-phenyl-thiazol-2-yl)-piperidin-4-ylamino]-phenyl}-ethylamino)-ethyl]-phenyl}-methanesulfonamide]",22 nM,0.96
"CCNC(=O)N1CCC(Nc2ccc(CCNC[C@H](O)COc3ccc(O)cc3)cc2)CC1 [Example 10, 4-(4-{2-[(2S)-2-Hydroxy-3-(4-hydroxy-phenoxy)-propylamino]-ethyl}-phenylamino)-piperidine-1-carboxylic Acid Ethylamide]",43 nM,0.85
"CN(C(=O)CCNC(=O)N1CCC(Nc2ccc(CCNC[C@H](O)COc3ccc(O)cc3)cc2)CC1)c1ccc(Cl)cc1 [Example 82, 4-(4-{2-[(2S)-2-Hydroxy-3-(4-hydroxy-phenoxy)-propylamino]-ethyl}-phenylamino)-piperidine-1-carboxylic Acid {2-[(4-chloro-phenyl)-methyl-carbamoyl]-ethyl}-amide]",53 nM,0.94
"O=C(NCc1ccc(F)cc1)N1CCC(S(=O)(=O)c2ccc(CCNC[C@H](O)COc3ccc(O)cc3)cc2)CC1 [Example 45, 4-(4-{2-[(2S)-2-Hydroxy-3-(4-hydroxy-phenoxy)-propylamino]-ethyl}-benzenesulfonyl)-piperidine-1-carboxylic Acid 4-fluoro-benzylamide]",64 nM,1.07
"CS(=O)(=O)Nc1cc([C@@H](O)CNCCc2ccc(NC3CCN(C(=O)N4CCC(C(=O)O)CC4)CC3)cc2)ccc1O [Example 52, 1-[4-(4-{2-[(2R)-2-Hydroxy-2-(4-hydroxy-3-methanesulfonylamino-phenyl)-ethylamino]-ethyl}-phenylamino)-piperidine-1-carbonyl]-piperidine-4-carboxylic Acid]",69 nM,0.82
"O=C(NCCCC1CCCC1)N1CCC(Nc2ccc(CCNC[C@H](O)COc3ccc(O)cc3)cc2)CC1 [Example 12, 1-4-(4-{2-[(2S)-2-Hydroxy-3-(4-hydroxy-phenoxy)-propylamino]-ethyl}-phenylamino)-piperidine-1-carboxylic Acid (3-cyclopentyl-propyl)-amide]",50 nM,–
"CCN(CC)C(=O)CCNC(=O)N1CCC(Nc2ccc(CCNC[C@H](O)COc3ccc(O)cc3)cc2)CC1 [Example 89, 4-(4-{2-[(2S)-2-Hydroxy-3-(4-hydroxy-phenoxy)-propylamino]-ethyl}-phenylamino)-piperidine-1-carboxylic Acid (2-diethylcarbamoyl-ethyl)-amide]",93 nM,0.83
